According to PubChem BioAssay (NCI):
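1) Cells in 96-well plates. 2) Compound, 48 h, 5 concentrations. 3) Linear interpolation between surrounding doses. 4) Unreached endpoint = highest concentration. TGI denotes the concentration required for complete inhibition of growth.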 Where a SMILES comes first, the peptide text is derived from it. [ ]: non-standard residue; d: D form. The star is where a group is joined. Bn2Val = CC(C)[C@@H](C(=O)*)N(Cc1ccccc1)Cc1ccccc1; NMeV = CN[C@H](C(=O)O)C(C)C; X29 = COc1ccc(CN*)c(OC)c1; dNMeA = CN[C@H](C)C(=O)O

Experiments:
Assay in all cases: NCI-60 cell line screen, 48 h
SR leukemia = tested on: SR leukemia
HS 578T breast = tested on: HS 578T breast
HCT-15 colon = tested on: HCT-15 colon
HCT-116 colon = tested on: HCT-116 colon
OVCAR-3 ovarian = tested on: OVCAR-3 ovarian
DU-145 prostate = tested on: DU-145 prostate
HL-60(TB) leukemia = tested on: HL-60(TB) leukemia
NCI-H23 lung = tested on: NCI-H23 lung
OVCAR-4 ovarian = tested on: OVCAR-4 ovarian
MDA-MB-435 = tested on: MDA-MB-435
UACC-257 melanoma = tested on: UACC-257 melanoma
CAKI-1 renal = tested on: CAKI-1 renal

Structure (SMILES) | TGI (SR leukemia) [µM] | TGI (HS 578T breast) [µM] | TGI (HCT-15 colon) [µM] | TGI (HCT-116 colon) [µM] | TGI (OVCAR-3 ovarian) [µM] | TGI (DU-145 prostate) [µM] | TGI (HL-60(TB) leukemia) [µM] | TGI (NCI-H23 lung) [µM] | TGI (OVCAR-4 ovarian) [µM] | TGI (MDA-MB-435) [µM] | TGI (UACC-257 melanoma) [µM] | TGI (CAKI-1 renal) [µM]
Cc1nnc2n(c1=O)CCN2C | > 100 | > 100 | > 100 | > 100 | > 100 | > 100 | > 100 | > 100 | > 100 | > 100 |  | 
COc1ccc(C(Cc2ccccc2)C2NC(=S)NC2=O)cc1 (stereo unspecified) | > 25 | > 25 | > 25 | > 25 | > 25 | > 25 | > 25 | > 25 | > 25 | > 25 | > 25 | > 25
CC1(C)CC2(C)CC1CC2(O)c1ccccc1 (stereo unspecified) | > 100 | > 100 |  | > 100 | > 100 | > 100 | > 100 | > 100 | > 100 | > 100 | > 100 | > 100
CC(=O)NC1=C(NCCCl)C(=O)c2ccccc2C1=O | > 100 | > 100 | > 100 | 48.1 | > 100 | > 100 |  | 80.1 | > 100 | 31.1 | 33.7 | 
O=c1[nH]c(=O)n(COCCO)c2ccsc12 | > 100 | > 100 | > 100 | > 100 | > 100 | > 100 | > 100 | > 100 | > 100 | > 100 | > 100 | > 100
C=C1[C@@](C)([C@@H]2CCCS2)[C@H]2C(C)=C[C@]1(C)n1c(=O)n(-c3ccccc3)c(=O)n12 |  | > 100 | > 100 | > 100 | > 100 | > 100 | > 100 | > 100 | > 100 | > 100 | > 100 | > 100
O=CC(O)C(O)C(O)C1CNC(=S)O1 (stereo unspecified) | > 100 | > 100 | > 100 | > 100 | > 100 | > 100 | > 100 | > 100 | > 100 | > 100 | > 100 | > 100
COC(=O)c1c(C)cccc1C1CN=NC12Cc1ccc(C)c(C)c1C2=O (stereo unspecified) | > 100 | > 100 | > 100 | 45.6 | > 100 | > 100 | 28.6 | > 100 | > 100 | > 100 | > 100 | > 100
CC12CCCCC1=[N+]([O-])C(C)(C)N2O (stereo unspecified) | > 100 | > 100 | > 100 | > 100 | > 100 | > 100 |  | > 100 | > 100 | > 100 | > 100 | > 100
CCOC(=O)NNC(=O)NCc1ccccc1CNC(=O)NNC(=O)OCC | > 100 | > 100 | > 100 | > 100 | > 100 | > 100 | > 100 | > 100 | > 100 | > 100 | > 100 | > 100
COC(=O)c1c(CC(Cc2ccc3c(c2)CCCC3)C(=O)OC)ccc2c1CCCC2 (stereo unspecified) | 86.7 | > 100 | > 100 | > 100 | > 100 | > 100 | 42.4 | > 100 | 45.1 | > 100 | > 100 | > 100
O=C1CC(C(OCc2ccccc2)C(OCc2ccccc2)C(COCc2ccccc2)OCc2ccccc2)CC(=O)N1 (stereo unspecified) | > 100 | > 100 | > 100 | > 100 |  | > 100 | > 100 | > 100 | > 100 | > 100 | > 100 | 
Cc1nc2n(c1/C=C1/C(=O)Nc3ccccc31)CCS2 |  | > 100 | > 100 | > 100 | > 100 | > 100 | > 100 | > 100 | > 100 | 36.1 | > 100 | > 100
COC(=O)NNC(c1ccc(Cl)cc1)c1ccc(Cl)cc1 | 54.8 | 48.1 | 31.1 | 30.3 | 31.9 | > 100 | 64.4 | 34.6 | 55.3 | > 100 | 39 | 35.7
O=C1CC(C(CC(=O)c2ccccc2)c2ccccc2)C(=O)c2ccccc2N1 (stereo unspecified) | > 100 | > 100 | 94.9 | > 100 | > 100 | > 100 | > 100 | > 100 |  | > 100 | > 100 | 
COCC1OC(S(=O)(=O)c2ccccc2)C(O)C(OC)C1OC (stereo unspecified) | > 100 | > 100 | > 100 | > 100 | > 100 | > 100 | > 100 | > 100 | > 100 | > 100 | > 100 | > 100
CCOc1ccc(N=NC2C(=O)N(C(=O)CC(=O)Nc3ccccc3)N=C2C)cc1 (stereo unspecified) | > 100 | 87.3 | > 100 | > 100 | > 100 | > 100 | > 100 | > 100 | > 100 | 23.8 | > 100 | > 100
CC(C)(C)CC(C)(C)NC(=S)NO | > 100 | > 100 | > 100 | > 100 | > 100 | > 100 | > 100 | > 100 | > 100 | > 100 | > 100 | > 100
C=C[C@@]1(O)CCCC[C@@H]1CC(Sc1ccccc1)Sc1ccccc1 | > 100 | 33.6 | 34.6 | 31.4 |  | 32.2 | > 100 | 32.7 | 32.9 | 33 | 39.6 | 30.1
O=[N+]([O-])c1ccc2oc(=Nc3ccccc3)c(Nc3ccccc3)nc2c1 | > 100 | > 100 | > 100 | > 100 |  | > 100 | > 100 | > 100 | > 100 | > 100 | > 100 | > 100

Structure (SMILES) | TGI (SR leukemia) [µM] | TGI (HS 578T breast) [µM] | TGI (HCT-15 colon) [µM] | TGI (HCT-116 colon) [µM] | TGI (OVCAR-3 ovarian) [µM] | TGI (DU-145 prostate) [µM] | TGI (HL-60(TB) leukemia) [µM] | TGI (NCI-H23 lung) [µM] | TGI (OVCAR-4 ovarian) [µM] | TGI (MDA-MB-435) [µM] | TGI (UACC-257 melanoma) [µM] | TGI (CAKI-1 renal) [µM]
CC(=O)OC1C2CCC3C(C)(O)C4CC(O)C(C)(C)C4(O)C(O)CC13CC2(C)O (stereo unspecified) | > 100 | > 100 | > 100 | > 100 | > 100 | > 100 | > 100 | > 100 | > 100 |  | > 100 | > 100
Oc1ccccc1C1C=C(c2ccccc2)NC(N2CCCCC2)=C1c1nc2ccccc2[nH]1 (stereo unspecified) | 35.3 | 31 | 35.9 | 24.6 | 29.8 | 66.6 | 43 | 30.3 | 30.7 | 29.6 | 30.7 | 
N=C(N)SCCC(=O)CCSC(=N)N | > 100 | > 100 | > 100 | > 100 | > 100 | > 100 | > 100 | > 100 | > 100 | > 100 | > 100 | 
CC1(C)C(CCO)CC1n1ccc(=O)[nH]c1=O (stereo unspecified) |  | > 100 | > 100 | > 100 | > 100 | > 100 |  |  | > 100 | > 100 | > 100 | > 100
Cc1ccnc2nc(N)ccc12 | > 100 | > 100 | > 100 | > 100 |  | > 100 | > 100 | > 100 | > 100 | > 100 | > 100 | > 100
O=C(Sc1c(-c2ccccc2)c(=O)n(-c2ccccc2)c(=S)n1-c1ccccc1)c1cccs1 | > 100 | > 100 | > 100 | > 100 | > 100 | > 100 | > 100 | > 100 | > 100 | > 100 | > 100 | > 100
NC(Cc1c[nH]c2cc([N+](=O)[O-])ccc12)C(=O)O (stereo unspecified) | > 100 | > 100 | > 100 | > 100 | > 100 | > 100 |  | > 100 | > 100 | > 100 | > 100 | > 100
COc1ccc(CNC(=O)[C@@H]2CCCN2C(=O)[C@@H](C)N(C)C(=O)[C@H](C(C)C)N(C)C(=O)[C@@H](NC(=O)[C@H](C(C)C)N(Cc2ccccc2)Cc2ccccc2)C(C)C)c(OC)c1 (Bn2Val-V[NMeV][dNMeA]P-X29) |  | > 100 | 13.5 | 9.62 | 14.7 | 20.7 | 2.8 | 9.3 | 14.4 | 6.61 | 11.9 | 15.5
OCC(CCc1ccccc1I)C1=CCC2(CC1)OCCO2 (stereo unspecified) | > 100 | 45.4 | 54.7 |  | 41.3 | 48 | 28.9 | 48.9 | 69.9 | 30.7 | 45.1 | 65.2
CN1N=C(c2ccncc2)OC1c1cccc(C(F)(F)F)c1 (stereo unspecified) |  | > 100 | > 100 | > 100 | > 100 | > 100 | > 100 | > 100 | > 100 | > 100 | > 100 | 
Cc1cccc2nc3c(=O)[nH]c(=O)nc-3n(C)c12 |  | > 100 | > 100 | > 100 | > 100 | > 100 | 45.9 | > 100 | > 100 | 34.1 | > 100 | > 100
CC(C)(O)C1CC[C@]2(C)[C@H]3CC[C@@H]4[C@@]5(C)CCCC(C)(C)[C@@H]5CC[C@@]4(C)[C@]3(C)CC[C@@H]12 (stereo partly specified) |  | > 100 | > 100 | > 100 | > 100 | > 100 | > 100 | > 100 | > 100 | > 100 | > 100 | > 100
CS(=O)(=O)c1nc(-c2cc3c(c(S(C)(=O)=O)n2)CCC3)cc2c1CCCC2 |  | 14.1 | > 100 | > 100 | > 100 | > 100 | > 100 | > 100 | > 100 | > 100 | > 100 | 38
Nc1nccc(NCC2(CO)CCC2)n1 | > 100 | > 100 | > 100 | > 100 | > 100 | > 100 | > 100 | > 100 |  | > 100 | > 100 | > 100
Cc1c(OCc2ccccc2)c(=O)ccn1CCc1c[nH]c2ccccc12 | 79.7 | > 100 | > 100 | > 100 | 51.4 | > 100 |  | > 100 |  | 51.1 | > 100 | 
COc1ccccc1N=Nc1c(O)c(S(=O)(=O)O)cc2cc(S(=O)(=O)O)ccc12 | > 100 | > 100 | > 100 | > 100 | > 100 | > 100 |  | > 100 | > 100 | > 100 | > 100 | > 100
COC(=O)C(=O)C(C(=O)C(=O)Nc1cccc([N+](=O)[O-])c1)c1nc2ccc(Cl)cc2[nH]c1=O (stereo unspecified) |  | > 100 | > 100 | > 100 | > 100 | > 100 | > 100 | > 100 | > 100 | > 100 | > 100 | > 100
COC(=O)CCc1c(Cc2ccc[nH]2)[nH]c(C(=O)OCc2ccccc2)c1C | 66.5 | 88.5 | 36.3 | 32.9 | 31 | > 100 |  | 43.9 | 34 | 32.6 | 38.9 | 64.7
CS[C@]12[C@@H]3C(=O)N(C)C(=O)[C@@H]3[C@](C)(C(=O)N1C)C(=O)N2c1ccccc1 |  | > 100 | > 100 | > 100 | > 100 | > 100 | > 100 | > 100 | > 100 | > 100 | > 100 | > 100
